{"source": "patent US4766126A", "about": "“Process for treatment of nephritis with imidazoquinazolines” (Daiichi Seiyaku Co., Ltd., priority 1986, dated 1988)", "key": {"[1]": {"tested_on": "GVHR-induced nephritis (proteinuria) in BDF1 mice", "test": "GVHR-induced proteinuria in mouse (urinary protein by modified one step Exton method)", "assay_type": "in vivo", "experimental": "(§1) When an animal of a first filial generation is implanted with lymphatic cells of its parent's line, a graft-versus-host reaction (hereinafter abbreviated as GVHR) takes place to thereby produce an auto-antibody and induce chronic immune-complex (IC) type nephritis.\n(§2) The present invention will now be illustrated by way of experiment examples. In these examples, the drug of interest was dissolved in a 0.5 wt% aqueous solution of carboxymethyl cellulose and administered to test animals in an amount of 0.1 ml per 10 g of the body weight.\n(§3) Into BDF1 mice (female; 7-week-old; Nippon Charles River) were intravenously implanted twice spleen cells (6×10^7 cells) and thymus cells (3×10^7 cells) taken from DBA/2 mice (female; 7-week-old; Nippon Charles River) of their parent's line on the 0 day and the 5th day to thereby induce GVHR. DN-9693 was orally given at a dose level of 1 mg/kg in a single dose per day for consecutive 44 days from the 6th day to the 49th day. After 2 weeks from the first implantation of cells, the protein in urine and the anti-erythrocyte antibody titre were determined at one week intervals. The protein in urine and the antibody titre were determined by the modified one step Exton method and the direct Coombs' test method, respectively, in accordance with the following procedures:\nModified One Step Exton Method\n1. Test urine and an albumin standard preparation were placed in a microplate in 10 μl portions.\n2. To each hole was added 200 μl of a reagent prepared by dissolving 15 g of sulfosalicylic acid, 20 g of anhydrous sodium sulfate, 5 mg of Bromophenol Blue, and 0.1 g of carboxymethyl cellulose in one liter of water. After stirring to mix, the system was allowed to stand at room temperature.\n3. Ten minutes later, the absorbance at 690 nm was measured using the system comprising the reagent alone as a blank.\n4. The protein in urine was calculated from a calibration curve."}, "[2]": {"tested_on": "anti-erythrocyte antibody (auto-antibody) in BDF1 mice", "test": "Auto-antibody production in mouse induced by GVHR (anti-erythrocyte antibody titre, direct Coombs' test)", "assay_type": "in vivo", "experimental": "as §1, §2, §3\nDirect Coombs' Test Method\n1. Blood samples (50 μl) were obtained from the orbital veniplex of the experimental animals (mice) using a heparinized hematocrit tube.\n2. The erythrocytes were washed three times by centrifugation (2,500 r.p.m. for 6 minutes) with a phosphoric acid-buffered physiological saline containing 0.3 wt% bovine serum albumin (0.3% BSA-PBS).\n3. The erythrocytes were suspended in 0.3% BSA-PBS to prepare a 1 wt% mouse erythrocyte suspension.\n4. The erythrocyte suspension (50 μl) was added to 50 μl of rabbit anti-mouse Ig (MBL) in a two-fold serial dilution placed in a microplate. After shaking, the system was allowed to stand at 37° C. for 1 hour and then at room temperature for 2 hours. The state of agglutination was observed.\n5. The maximum dilution of the rabbit anti-mouse Ig that gave a positive agglutination was expressed as 10×2^n, and the value n was taken as an antibody titre."}, "[3]": {"tested_on": "lupus nephritis (proteinuria) in NZB/WF1 mice", "test": "Urinary protein in NZB/WF1 mouse (spontaneous lupus nephritis)", "assay_type": "in vivo", "experimental": "as §2\nTen animals clearly showing proteinuria were chosen from 32-week-old NZB/WF1 mice (female, Jackson) and divided into two groups (5 animals per group) taking the protein level in urine as a guide.\nDN-9693 was continuously administered orally one or two times per day at a dose of 1 mg/kg, and influences on changes of urinary protein level were examined.\nThus, the activity to lower protein in urine was recognized also in spontaneously occurring lupus nephritis."}, "[4]": {"tested_on": "nephritis of acute serum sickness", "conditions": "Clin. Exp. Immunol., Vol. 61, 388-396 (1985); cited from earlier work"}, "[5]": {"conditions": "1 mg/kg p.o., in words, monohydrate"}}, "note": "Entries after “also recorded” stand apart in the source; their conditions may differ. Counter-ions that a name gives are not always drawn."}
{"smiles": "O=C1CN2Cc3cc(N4CCCCC4)ccc3N=C2N1", "note": "[DN-9693, 7-piperidino-1,2,3,5-tetrahydroimidazo[2,1-b]quinazolin-2-onedihydrochloride monohydrate]", "values": [{"measurement": "Effect on urinary protein (GVHR-induced nephritis)", "setting": "[1]; [5]", "value": "exhibited an effect to decrease protein in urine; also recorded: urinary protein decreasing effect; also recorded: significantly inhibits an increase of urinary protein"}, {"measurement": "Urinary Protein Score (Mean ± S.E.), 4th Week", "setting": "[1]; DN-9693 1 mg/kg p.o. once daily day 6-49, n=7, 4th week from first cell implantation, control 0.2 ± 0.1, score 0 (<=1 mg/ml) to 4 (>=30 mg/ml and ascitic positive)", "value": "0.3 ± 0.1"}, {"measurement": "Urinary Protein Score (Mean ± S.E.), 5th Week", "setting": "[1]; DN-9693 1 mg/kg p.o. once daily day 6-49, n=7, 5th week from first cell implantation, control 0.8 ± 0.4, score 0 to 4", "value": "0.1 ± 0.1"}, {"measurement": "Urinary Protein Score (Mean ± S.E.), 6th Week", "setting": "[1]; DN-9693 1 mg/kg p.o. once daily day 6-49, n=7, 6th week from first cell implantation, control 1.8 ± 0.7, score 0 to 4", "value": "0.4 ± 0.4"}, {"measurement": "Urinary Protein Score (Mean ± S.E.), 7th Week", "setting": "[1]; DN-9693 1 mg/kg p.o. once daily day 6-49, n=7, 7th week from first cell implantation, control 2.3 ± 0.6, S.E. 0.4 printed on next line, significantly different from control (P < 0.05), score 0 to 4", "value": 0.6}, {"measurement": "Anti-Erythrocyte Antibody Titre (Mean ± S.E.), 3rd Week", "setting": "[2]; 1 mg/kg p.o. once daily day 6-49, n=7, titre n: 10 × 2^n, 3rd week from first cell implantation, control 6.3 ± 1.0", "value": "6.6 ± 0.6"}, {"measurement": "Anti-Erythrocyte Antibody Titre (Mean ± S.E.), 4th Week", "setting": "[2]; 1 mg/kg p.o. once daily day 6-49, n=7, titre n: 10 × 2^n, 4th week from first cell implantation, control 5.4 ± 0.6", "value": "5.6 ± 0.2"}, {"measurement": "Anti-Erythrocyte Antibody Titre (Mean ± S.E.), 5th Week", "setting": "[2]; 1 mg/kg p.o. once daily day 6-49, n=7, titre n: 10 × 2^n, 5th week from first cell implantation, control 4.9 ± 1.3", "value": "3.6 ± 1.1"}, {"measurement": "Anti-Erythrocyte Antibody Titre (Mean ± S.E.), 6th Week", "setting": "[2]; 1 mg/kg p.o. once daily day 6-49, n=7, titre n: 10 × 2^n, 6th week from first cell implantation, control 2.9 ± 1.5", "value": "3.9 ± 1.1"}, {"measurement": "Anti-Erythrocyte Antibody Titre (Mean ± S.E.), 7th Week", "setting": "[2]; 1 mg/kg p.o. once daily day 6-49, n=7, titre n: 10 × 2^n, 7th week from first cell implantation, control 1.9 ± 1.2", "value": "3.1 ± 1.0"}, {"measurement": "Influence on production of auto-antibody / immune inhibitory activity", "setting": "[2]; [5]", "value": "did not influence the production of an auto-antibody; also recorded: possesses no immune inhibitory activity; also recorded: does not decrease the Coombs antibody titre"}, {"measurement": "Effect on urinary protein (spontaneous lupus nephritis)", "setting": "[3]; 1 mg/kg p.o. one or two times per day, in words, monohydrate", "value": "the increase of urinary protein level is inhibited; also recorded: reduction of protein in the urine"}, {"measurement": "Number of survivors, 0 Week (32)", "setting": "[3]; of 5 animals, 0 week, control 5", "value": 5}, {"measurement": "Number of survivors, 1 Week (33)", "setting": "[3]; of 5 animals, 1 week, control 5", "value": 5}, {"measurement": "Number of survivors, 2 Weeks (34)", "setting": "[3]; of 5 animals, 2 weeks, control 4", "value": 5}, {"measurement": "Urinary Protein Index (Mean ± S.E.), 0 Week (32)", "setting": "[3]; protein level after/before administration, 1 mg/kg p.o. one or two times per day, 0 week (32-week-old), control 1.0", "value": 1.1}, {"measurement": "Urinary Protein Index (Mean ± S.E.), 1 Week (33)", "setting": "[3]; protein level after/before administration, 1 mg/kg p.o. one or two times per day, 1 week (33-week-old), control 7.0 ± 5.9", "value": "1.2 ± 0.2"}, {"measurement": "Urinary Protein Index (Mean ± S.E.), 2 Weeks (34)", "setting": "[3]; protein level after/before administration, 1 mg/kg p.o. one or two times per day, 2 weeks (34-week-old), control 4.8 ± 2.9", "value": "1.6 ± 0.6"}]}
{"smiles": "OCCN(CCO)c1nc(N2CCCCC2)c2nc(N(CCO)CCO)nc(N3CCCCC3)c2n1", "note": "[dipyridamole, 2,6-bis(diethanolamino)-4,8-dipiperidinopyrimido[5,4,-d]pyrimidine]", "values": [{"measurement": "Protection of nephritis", "setting": "[4]", "value": "protection of nephritis"}]}
{"smiles": "N=C(N)c1ccc2cc(OC(=O)c3ccc(N=C(N)N)cc3)ccc2c1", "note": "[FUT-175, dihydrochloride]", "values": [{"measurement": "Protection of nephritis", "setting": "[4]", "value": "protection of nephritis"}]}
